Results reported in patent US5876981A, “Transglycosylation reactions employing β-galactosidase” (The Scripps Research Institute, priority 1996, dated 1999).

What was measured:
Format in all cases: biochemical, Bacillus circulans
β-galactosidase [1] = assay: half-life in β-galactosidase-catalyzed hydrolysis (pseudo first order kinetics); conditions: 5 mM compound, enzyme 140 U/mmol, in D2O, NMR integration of released 3 vs remaining 4
Protocol: (§1) The half-lives of compounds 2 and 4 determined from the pseudo first order kinetics of the β-galactosidase-catalyzed hydrolysis were measured as below. 2: A 0.5-mL solution of potassium phosphate buffer (50 mM, pH 7.0) containing 2 (5 mM) and β-galactosidase (140 unit per 1 mmol of 2) was measured continuously in a plastic cell with a 1 cm light path at 420 nm against a control in the absence of the enzyme. 4: A 5-mM solution of 4 and the enzyme (140 U/mmol) in D2 O was poured into an NMR tube, the ratio between the released 3 and remaining 4 was determined periodically by the integration of 6-H of 4 (3.98 ppm) and 6-H of 3 (3.88 ppm).

[2] = as above; conditions: potassium phosphate buffer with β-galactosidase; 5 mM compound, enzyme 140 unit per mmol, 50 mM potassium phosphate buffer pH 7.0, absorbance at 420 nm; read-out: T1/2 toward the β-galactosidase-catalyzed hydrolysis (converted)
Protocol: as §1

β-galactosidase [3] = assay: initial reaction rate of β-galactosidase-catalyzed reaction (released p-nitrophenol, 420 nm); conditions: 0.05M donor, 0.05M potassium phosphate buffer pH 7.0, room temperature
Protocol: FIG. 2 illustrates the comparison of β-galactosidase-catalyzed reaction using galactopyranose (GalβOpNP) and galactohexodialdose (6-oxo-GalβOpNP). (a): The reaction mixture containing 0.05M of donor, and various concentrations of N-acetyl-D-glucosamine in 0.05M potassium phosphate buffer (pH 7.0) was gently stirred at room temperature in the presence of the enzyme (140 U/mmol of donor) for 24 hours; (b) The mixture (containing the same components as described in (a)) was incubated with shaking for 5-10 min at room temperature. Absorbance was measured at 420 nm; (C) Methyl-β-N-acetyl-D-lactosamine (5) was obtained by reduction with NaBH4 followed by product isolation.
In order to determine which step is kinetically controlled, the effect of acceptors on initial reaction rate, (V)0, was investigated (FIG. 2). […] Addition of water soluble organic solvent would reduce water activity to some extent, but it often causes substrate and/or product inhibition and makes the enzyme unstable (Kieboom et al., Recl. Trav. Chim. Pays-Bas 1988, 107, 347-348). To shift the reaction toward transglycosylation in water, it is therefore necessary to kinetically control the partitioning step to favor the transglycosylation.

Row | Compound | T1/2 toward the β-galactosidase-catalyzed hydrolysis (β-galactosidase [1]) | half-life at 5000 µM [2] | substrate quality for β-galactosidase (β-galactosidase [3])
1 | 6'-oxo-LacNAc [Compound 4] | 1860 min | – | –
2 | O=[N+]([O-])c1ccc(O[C@@H]2O[C@H](C(O)O)[C@H](O)[C@H](O)[C@H]2O)cc1 [Compound 2, p-nitrophenyl glycoside of D-galactohexodialdose] | – | 24 min | relatively weak substrate
